Measurements reported in PubChem BioAssay (NCI).
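Growth conditions: 96-well plates. Treatment: test compound, 48 hours, 5 concentrations. Analysis: linear interpolation between bracketing concentrations; unreached endpoints set to highest concentration. GI50 marks 50% less growth. TGI is the concentration that stops growth completely.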

Columns and labels:
Assay in all cases: NCI anticancer screen, dose series, 48 h
HL-60(TB) leukemia = test system: HL-60(TB) leukemia
UACC-257 melanoma = test system: UACC-257 melanoma
HOP-92 NSCLC = test system: HOP-92 NSCLC
CAKI-1 renal = test system: CAKI-1 renal
OVCAR-4 ovarian = test system: OVCAR-4 ovarian
HT29 colon = test system: HT29 colon
MDA-MB-231 breast = test system: MDA-MB-231 breast
HCT-116 colon = test system: HCT-116 colon
HOP-62 NSCLC = test system: HOP-62 NSCLC
COLO 205 colon = test system: COLO 205 colon

Structure (SMILES) | GI50 (HL-60(TB) leukemia) | TGI (HL-60(TB) leukemia) | GI50 (UACC-257 melanoma) | TGI (UACC-257 melanoma) | GI50 (HOP-92 NSCLC) | TGI (HOP-92 NSCLC) | GI50 (CAKI-1 renal) | TGI (CAKI-1 renal) | GI50 (OVCAR-4 ovarian) | TGI (OVCAR-4 ovarian) | GI50 (HT29 colon) | TGI (HT29 colon) | GI50 (MDA-MB-231 breast) | TGI (MDA-MB-231 breast) | GI50 (HCT-116 colon) | TGI (HCT-116 colon) | GI50 (HOP-62 NSCLC) | TGI (HOP-62 NSCLC) | GI50 (COLO 205 colon) | TGI (COLO 205 colon)
N#Cc1cccc(C(=O)c2cnn(-c3ccc(F)cc3)c2N)c1 | > 25 µM | > 25 µM | > 25 µM | > 25 µM | > 25 µM | > 25 µM | > 25 µM | > 25 µM | > 25 µM | > 25 µM | > 25 µM | > 25 µM | > 25 µM | > 25 µM | > 25 µM | > 25 µM | > 17.2 µM | > 25 µM | > 25 µM | > 25 µM
Cc1ccccc1S(=O)(=O)N1[C@H](c2ccc(Cl)cc2)C(C(=O)N[C@@H](Cc2ccccc2)C(N)=O)=C[C@@H]1C(C)(C)C | 9.6 µM | 31.2 µM | 8.31 µM | 17.2 µM | 7.24 µM | 17.4 µM | 5.68 µM | 16.6 µM | 6.25 µM | 13.4 µM | 3.49 µM | 10 µM | 6.94 µM | 14.3 µM | 2.9 µM | 15.1 µM | 7.75 µM | 15.1 µM | 6.8 µM | 14.3 µM
Nc1c(C(=O)c2cccc(-c3ccc[n+]([O-])c3)c2)cnn1-c1ccc(F)cc1F | > 25 µM | > 25 µM | > 25 µM | > 25 µM | > 25 µM | > 25 µM | > 25 µM | > 25 µM | > 25 µM | > 25 µM | > 25 µM | > 25 µM | > 25 µM | > 25 µM | > 25 µM | > 25 µM | > 25 µM | > 25 µM | > 25 µM | > 25 µM
CCN(CC)c1ccc(N=C2C=C(C(=O)Nc3ccc(S(C)(=O)=O)cc3)C(=O)c3ccccc32)c(C)c1 | 14 µM | > 100 µM | > 100 µM | > 100 µM | > 100 µM | > 100 µM | 81 µM | > 100 µM | 8.91 µM | > 100 µM | > 100 µM | > 100 µM | 4.53 µM | > 100 µM | 12.6 µM | > 100 µM | 91.7 µM | > 100 µM | 32.7 µM | > 100 µM
O=C1c2ccccc2-c2c1c1ccc([N+](=O)[O-])cc1c(=O)n2CCNCCCNCCn1c2c(c3ccc([N+](=O)[O-])cc3c1=O)C(=O)c1ccccc1-2 | 1.5 µM | 50 µM | 8.89 µM | 25.1 µM | 0.803 µM | 4.16 µM | 0.822 µM | 21.7 µM | 0.215 µM | 4.92 µM | 0.0105 µM | 5.52 µM | 0.033 µM | 0.53 µM | 0.129 µM | 4.5 µM | 0.742 µM | 7.51 µM | 0.433 µM | 9.77 µM
COc1cc(C(=O)/C=C/c2c(-c3ccc(F)cc3)nc3sc(C)cn23)cc(OC)c1OC | 2.87 µM | > 100 µM | 4.75 µM | > 100 µM | 0.155 µM | 6.32 µM | 1.78 µM | 53.1 µM | 2.28 µM | > 100 µM | 6.96 µM | > 100 µM | 5.38 µM | > 100 µM | 2.92 µM | > 100 µM | 85.1 µM | > 100 µM | 4.94 µM | > 100 µM
N#Cc1c2ccccc2c2n1-c1ccccc1OC(c1ccccc1)C2=O (stereo not given) | 2.83 µM | 6.03 µM | 3.82 µM | 17.6 µM | 2.01 µM | 5.88 µM | 3.16 µM | 13.7 µM | 2.43 µM | 8.44 µM | 4.1 µM | 14 µM | 2.78 µM | 8.99 µM | 2.84 µM | 12.4 µM | 3.84 µM | 15.8 µM | 4.67 µM | 16.4 µM
C=C(C)C(=O)OC1CC2(C)OC2CC(OC(C)=O)/C(C)=C/C2OC(=O)C(=C)C21 (stereo not given) | – | 1.14 µM | – | 18.5 µM | – | 12.5 µM | – | 9.84 µM | – | 23.7 µM | – | 6.98 µM | – | 18.5 µM | – | 3.61 µM | – | 26.5 µM | – | 3.42 µM
